Data reported in patent US20260184691A1, “INHIBITORS AND DEGRADERS OF PIP4K PROTEIN” (Larkspur Biosciences, Inc., priority 2022, published 2026).

Each compound was assayed against T1, Human PIP4K2C (Homo sapiens, UniProt Q8TBX8) (assay: Enzyme binding assay (KINOMEscan), active site-directed competition binding). Settings: 11-point dose response, duplicate, top concentration 5 micromolar; read-out: Pip4k2c Kd: IC50.
T1 construct: purchased Eurofins DiscoverX 87-0007-1094
T1 sequence (Q8TBX8 1-421): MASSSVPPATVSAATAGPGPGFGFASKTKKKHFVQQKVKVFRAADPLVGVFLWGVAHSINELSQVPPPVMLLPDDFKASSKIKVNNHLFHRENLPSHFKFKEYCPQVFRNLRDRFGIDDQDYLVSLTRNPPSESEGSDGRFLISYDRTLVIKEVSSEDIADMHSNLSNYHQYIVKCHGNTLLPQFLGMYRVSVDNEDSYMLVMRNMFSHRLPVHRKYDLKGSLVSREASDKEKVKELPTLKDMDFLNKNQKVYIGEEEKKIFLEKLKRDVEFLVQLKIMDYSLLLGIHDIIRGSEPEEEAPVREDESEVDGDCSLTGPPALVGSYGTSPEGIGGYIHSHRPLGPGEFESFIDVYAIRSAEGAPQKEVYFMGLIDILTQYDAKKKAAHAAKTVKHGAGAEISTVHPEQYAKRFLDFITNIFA
How it was run: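 Active site-directed competition against immobilized ligand. 11-point dose response in duplicate, top concentration 5 micromolar; IC50 from Hill fit by Levenberg-Marquardt.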

Row | IC50 [µM] | SMILES
1 | < 0.5 | O=C1CCCN1c1cncc(Nc2ncc(Cl)c(-c3cnn(C4CCCCC4)c3)n2)c1 [Compound 139, 1-[5-[[5-chloro-4-(1-cyclohexylpyrazol-4-yl)pyrimidin-2-yl]amino]-3-pyridyl]pyrrolidin-2-one]
2 | < 0.5 | O=C1CCCN1c1cncc(Nc2ncc(Cl)c(-c3cnn(-c4ccccc4)c3)n2)c1 [Compound 140, 1-(5-((5-chloro-4-(1-phenyl-1H-pyrazol-4-yl)pyrimidin-2-yl)amino)pyridin-3-yl)pyrrolidin-2-one]
3 | < 0.5 | O=C1CCCN1c1cncc(Nc2ncc(Cl)c(C3CCCN(c4ccccc4)C3)n2)c1 (stereo not shown) [Compound 141, 1-(5-((5-chloro-4-(1-phenylpiperidin-3-yl)pyrimidin-2-yl)amino)pyridin-3-yl)pyrrolidin-2-one]
4 | < 0.5 | O=C1CCCN1c1cncc(Nc2ncc(Cl)c(-c3cccc(Oc4ccccc4)c3)n2)c1 [Compound 142, 1-(5-((5-chloro-4-(3-phenoxyphenyl)pyrimidin-2-yl)amino)pyridin-3-yl)pyrrolidin-2-one]
5 | < 0.5 | O=C1CCCN1c1cncc(Nc2ncc(Cl)c(-c3ccn(-c4ccccc4)n3)n2)c1 [Compound 143, 1-(5-((5-chloro-4-(1-phenyl-1H-pyrazol-3-yl)pyrimidin-2-yl)amino)pyridin-3-yl)pyrrolidine-2-one]
6 | < 0.5 | O=C1CCCN1c1cncc(Nc2ncc(Cl)c(-c3ccn(C4CCCC4)n3)n2)c1 [Compound 144, 1-(5-((5-chloro-4-(1-cyclopentyl-1H-pyrazol-3-yl)pyrimidin-2-yl)amino)pyridin-3-yl)pyrrolidin-2-one]
7 | < 0.5 | O=C1CCCN1c1cncc(Nc2ncc(Cl)c(C3CCCN(C4CCC4)C3)n2)c1 (stereo not shown) [Compound 145, 1-(5-((5-chloro-4-(1-cyclobutylpiperidin-3-yl)pyrimidin-2-yl)amino)pyridin-3-yl)pyrrolidin-2-one]
8 | < 0.5 | O=C(C1CCCC1)N1CCCC(c2nc(Nc3cncc(N4CCCC4=O)c3)ncc2Cl)C1 (stereo not shown) [Compound 146, 1-(5-((5-chloro-4-(1-(cyclopentanecarbonyl)piperidin-3-yl)pyrimidin-2-yl)amino)pyridin-3-yl)pyrrolidin-2-one]
9 | < 0.5 | O=C1CCCN1c1ccc(Nc2ncc(F)c(-c3cccc(C4CC4)c3)n2)cn1 [Compound 147, 1-(5-((4-(3-cyclopropylphenyl)-5-fluoropyrimidin-2-yl)amino)pyridin-2-yl)pyrrolidin-2-one]
10 | < 0.5 | O=C1CCCN1c1cncc(Nc2ncc(F)c(-c3cnn(C4COC4)c3)n2)c1 [Compound 148, 1-(5-((5-fluoro-4-(1-(oxetan-3-yl)-1H-pyrazol-4-yl)pyrimidin-2-yl)amino)pyridin-3-yl)pyrrolidin-2-one]
11 | < 0.5 | O=C1CCCN1c1cncc(Nc2ncc(Cl)c(C3CCCN(C4CC4)C3)n2)c1 (stereo not shown) [Compound 149, 1-(5-((5-chloro-4-(1-cyclopropylpiperidin-3-yl)pyrimidin-2-yl)amino)pyridin-3-yl)pyrrolidin-2-one]
12 | 0.5 to 1 | O=C1CCCN1c1ccnc(Nc2ncc(Cl)c(-c3cccc(C4CCCCC4)c3)n2)c1 [Compound 150, 1-(2-((5-chloro-4-(3-cyclohexylphenyl)pyrimidin-2-yl)amino)pyridin-4-yl)pyrrolidin-2-one]
13 | < 0.5 | CC(=O)N1CCCC(c2nc(Nc3cncc(N4CCCC4=O)c3)ncc2Cl)C1 (stereo not shown) [Compound 151, 1-(5-((4-(1-acetylpiperidin-3-yl)-5-chloropyrimidin-2-yl)amino)pyridin-3-yl)pyrrolidine-2-one]
14 | < 0.5 | CC(=O)N1CCC(c2nc(Nc3cncc(N4CCCC4=O)c3)ncc2Cl)CC1 [Compound 152, 1-(5-((4-(1-acetylpiperidin-4-yl)-5-chloropyrimidin-2-yl)amino)pyridin-3-yl)pyrrolidin-2-one]
15 | < 0.5 | O=C(C1CCCC1)N1CCC(c2nc(Nc3cncc(N4CCCC4=O)c3)ncc2Cl)CC1 [Compound 153, 1-(5-((5-chloro-4-(1-(cyclopentanecarbonyl)piperidin-4-yl)pyrimidin-2-yl)amino)pyridin-3-yl)pyrrolidin-2-one]
16 | < 0.5 | O=C1CCCN1c1cncc(Nc2ncc(F)c(C3CCCN(C4CC4)C3)n2)c1 (stereo not shown) [Compound 154, 1-(5-((4-(1-cyclopropylpiperidin-3-yl)-5-fluoropyrimidin-2-yl)amino)pyridin-3-yl)pyrrolidine-2-one]
17 | < 0.5 | O=C1CCCN1c1cncc(Nc2ncc(F)c(-c3ccc(=O)n(C4COC4)c3)n2)c1 [Compound 155, 5-(5-fluoro-2-((5-(2-oxopyrrolidin-1-yl)pyridin-3-yl)amino)pyrimidin-4-yl)-1-(oxetan-3-yl)pyridin-2(1H)-one]
18 | < 0.5 | O=C1CCCN1c1cncc(Nc2ncc(Cl)c(N3CCCC(n4ccccc4=O)C3)n2)c1 (stereo not shown) [Compound 156, 1-(1-(5-chloro-2-((5-(2-oxopyrrolidin-1-yl)pyridin-3-yl)amino)pyrimidin-4-yl)piperidin-3-yl)pyridin-2(1H)-one]
19 | < 0.5 | O=C1CCCN1c1cncc(Nc2ncc(F)c(-c3ccc(=O)n(C4CCC4)c3)n2)c1 [Compound 157, 1-cyclobutyl-5-(5-fluoro-2-((5-(2-oxopyrrolidin-1-yl)pyridin-3-yl)amino)pyrimidin-4-yl)pyridin-2(1H)-one]
20 | < 0.5 | O=C1CCCN1c1cncc(Nc2ncc(F)c(-c3ccc(=O)n(CC4CC4)c3)n2)c1 [Compound 158, 1-(cyclopropylmethyl)-5-(5-fluoro-2-((5-(2-oxopyrrolidin-1-yl)pyridin-3-yl)amino)pyrimidin-4-yl)pyridin-2(1H)-one]
21 | < 0.5 | O=C(c1ccc(F)cc1)N1CCC(c2nc(Nc3cncc(N4CCCC4=O)c3)ncc2Cl)C1 (stereo not shown) [Compound 159, 1-(5-((5-chloro-4-(1-(4-fluorobenzoyl)pyrrolidin-3-yl)pyrimidin-2-yl)amino)pyridin-3-yl)pyrrolidin-2-one]
22 | < 0.5 | O=C(C1COC1)N1CCCC(c2nc(Nc3cncc(N4CCCC4=O)c3)ncc2Cl)C1 (stereo not shown) [Compound 160, 1-(5-((5-chloro-4-(1-(oxetane-3-carbonyl)piperidin-3-yl)pyrimidin-2-yl)amino)pyridin-3-yl)pyrrolidin-2-one]
23 | < 0.5 | O=C(c1cccc(=O)[nH]1)N1CCCC(c2nc(Nc3cncc(N4CCCC4=O)c3)ncc2Cl)C1 (stereo not shown) [Compound 161, 6-(3-(5-chloro-2-((5-(2-oxopyrrolidin-1-yl)pyridin-3-yl)amino)pyrimidin-4-yl)piperidine-1-carbonyl)pyridin-2(1H)-one]
24 | < 0.5 | O=C(c1ccc(F)cc1)N1CCCC(c2nc(Nc3cncc(N4CCCC4=O)c3)ncc2Cl)C1 (stereo not shown) [Compound 162, 1-(5-((5-chloro-4-(1-(4-fluorobenzoyl)piperidin-3-yl)pyrimidin-2-yl)amino)pyridin-3-yl)pyrrolidin-2-one]
25 | < 0.5 | O=C(c1ccc(=O)[nH]c1)N1CCCC(c2nc(Nc3cncc(N4CCCC4=O)c3)ncc2Cl)C1 (stereo not shown) [Compound 163, 5-[3-[5-chloro-2-[[5-(2-oxopyrrolidin-1-yl)-3-pyridyl]amino]pyrimidin-4-yl]piperidine-1-carbonyl]-1H-pyridin-2-one]
26 | < 0.5 | O=C(c1cc[nH]c(=O)c1)N1CCCC(c2nc(Nc3cncc(N4CCCC4=O)c3)ncc2Cl)C1 (stereo not shown) [Compound 164, 4-(3-(5-chloro-2-((5-(2-oxopyrrolidin-1-yl)pyridin-3-yl)amino)pyrimidin-4-yl)piperidine-1-carbonyl)pyridin-2(1H)-one]
27 | < 0.5 | O=C(c1ccc[nH]c1=O)N1CCCC(c2nc(Nc3cncc(N4CCCC4=O)c3)ncc2Cl)C1 (stereo not shown) [Compound 165, 3-(3-(5-chloro-2-((5-(2-oxopyrrolidin-1-yl)pyridin-3-yl)amino)pyrimidin-4-yl)piperidine-1-carbonyl)pyridin-2(1H)-one]

What follows are compounds tested against T2, endogenous PIP4K2C C-terminally tagged with HiBiT peptide in MOLT-4 cells (Homo sapiens, UniProt Q8TBX8) (assay: HiBiT PIP4K2C degradation assay in MOLT-4 cells). Settings: 24 hours, 10-point dose response, top concentration 10 micromolar, read-out: HiBIT-degradation MOLT4 PIP4k2C 24 hours DC50.
T2 construct: to C-terminally tag endogenous PIP4K2C with HiBiT peptide; host or cells: MOLT-4 (CRISPR-Cas9 knock-in clone)
T2 sequence (Q8TBX8 1-421): T1 sequence (Q8TBX8 1-421)
Assay type: cell-based
Experimental: Following clonal selection, genotype was confirmed by Sanger sequencing. […] Nano-Glo® HiBiT Lytic Assay System was purchased from Promega (Madison, WI, Catalog number N3030). Cell culture flasks and 384-well microplates were purchased from Corning (Glendale, AZ).
To study PIP4K2C degradation, 384-well plates were plated with a 10-point dose response curve, 3-fold dilution, in duplicate with a top starting concentration of 10 micromolar. Subsequently 22,500 cells were added to each well and incubated at 37C in 5% CO2 for 24 hours. At the end of the incubation time, cells were treated with the Nano-Glo® HiBiT Lytic Detection System following the manufacturer's instructions. Luminescence was measured with a PHERAstar FSX plate reader (BMG Labtech, Cary, NC). The Levenberg-Marquardt algorithm was used to fit a Hill equation to dose-response data to calculate DC50 values (see Table 6).

Row | DC50 [µM] | SMILES
28 | 1 to 5 | Cn1c(=O)n(C2CCC(=O)NC2=O)c2cc(OCC(=O)NCCCCCCCCCC(=O)Nc3cncc(Nc4ncc(Cl)c(-c5cccc(-c6ccccc6)c5)n4)c3)ccc21 (stereo not shown) [Compound 51, N-(5-((4-([1,1′-biphenyl]-3-yl)-5-chloropyrimidin-2-yl)amino)pyridin-3-yl)-10-(2-((3-(2,6-dioxopiperidin-3-yl)-1-methyl-2-oxo-2,3-dihydro-1H-benzo[d]imidazol-5-yl)oxy)acetamido)decanamide]
